Assay results taken from ChEMBL document CHEMBL5346907, “Discovery of a novel oral type Ⅰ CDK8 inhibitor against acute myeloid leukemia” (Eur J Med Chem, 2023).
Active and inactive are the calls of the source. No cut-off for these calls is given here.

Legend:
[1] = test system: HL-60; assay: Antiproliferative activity against human HL-60 cells incubated for 48 hrs by CCK8 assay; assay type: functional
[2] = test system: MGC-803; assay: Antiproliferative activity against human MGC-803 cells incubated for 48 hrs by CCK8 assay; assay type: functional
[3] = test system: A-375; assay: Antiproliferative activity against human A-375 cells incubated for 48 hrs by CCK8 assay; assay type: functional
[4] = test system: A549; assay: Antiproliferative activity against human A549 cells incubated for 48 hrs by CCK8 assay; assay type: functional
[5] = molecular target: Cyclin-dependent kinase 5/CDK5 activator 1 (Homo sapiens) (UniProt Q00535+Q15078); assay: Inhibition of CDK5/p35NCK (unknown origin) at 1 uM preincubated for 10 mins followed by substrate addition measured for 60 to 120 mins by HTRF assay relative to control; assay type: protein-complex assay; conditions: time 70-130 min
[6] = molecular target: Tyrosine-protein kinase Fes/Fps (Homo sapiens) (UniProt P07332); assay: Inhibition of FES (unknown origin) at 1 uM preincubated for 10 mins followed by substrate addition measured for 60 to 120 mins by HTRF assay relative to control; conditions: time 70-130 min
[7] = molecular target: Insulin receptor-related protein (Homo sapiens) (UniProt P14616); assay: Inhibition of IRR (unknown origin) at 1 uM preincubated for 10 mins followed by substrate addition measured for 60 to 120 mins by HTRF assay relative to control; conditions: time 70-130 min
[8] = molecular target: Tyrosine-protein kinase Lck (Homo sapiens) (UniProt P06239); assay: Inhibition of LCK (unknown origin) at 1 uM preincubated for 10 mins followed by substrate addition measured for 60 to 120 mins by HTRF assay relative to control; conditions: time 70-130 min
[9] = molecular target: Proto-oncogene tyrosine-protein kinase Src (Homo sapiens) (UniProt P12931); assay: Inhibition of SRC (unknown origin) at 1 uM preincubated for 10 mins followed by substrate addition measured for 60 to 120 mins by HTRF assay relative to control; conditions: time 70-130 min
[10] = molecular target: Ephrin type-A receptor 1 (Homo sapiens) (UniProt P21709); assay: Inhibition of EPHA1 (unknown origin) at 1 uM preincubated for 10 mins followed by substrate addition measured for 60 to 120 mins by HTRF assay relative to control; conditions: time 70-130 min
[11] = molecular target: Ephrin type-A receptor 8 (Homo sapiens) (UniProt P29322); assay: Inhibition of EPHA8 (unknown origin) at 1 uM preincubated for 10 mins followed by substrate addition measured for 60 to 120 mins by HTRF assay relative to control; conditions: time 70-130 min
[12] = molecular target: Ephrin type-A receptor 3 (Homo sapiens) (UniProt P29320); assay: Inhibition of EPHA3 (unknown origin) at 1 uM preincubated for 10 mins followed by substrate addition measured for 60 to 120 mins by HTRF assay relative to control; conditions: time 70-130 min
[13] = molecular target: Ephrin type-A receptor 6 (Homo sapiens) (UniProt Q9UF33); assay: Inhibition of EPHA6 (unknown origin) at 1 uM preincubated for 10 mins followed by substrate addition measured for 60 to 120 mins by HTRF assay relative to control; conditions: time 70-130 min
[14] = molecular target: Tyrosine-protein kinase ABL1 (Homo sapiens) (UniProt P00519); assay: Inhibition of ABL1 (unknown origin) at 1 uM preincubated for 10 mins followed by substrate addition measured for 60 to 120 mins by HTRF assay relative to control; conditions: time 70-130 min
[15] = molecular target: Hepatocyte growth factor receptor (Homo sapiens) (UniProt P08581); assay: Inhibition of MET (unknown origin) at 1 uM preincubated for 10 mins followed by substrate addition measured for 60 to 120 mins by HTRF assay relative to control; conditions: time 70-130 min
[16] = molecular target: Tyrosine-protein kinase TXK (Homo sapiens) (UniProt P42681); assay: Inhibition of TXK (unknown origin) at 1 uM preincubated for 10 mins followed by substrate addition measured for 60 to 120 mins by HTRF assay relative to control; conditions: time 70-130 min
[17] = molecular target: Tyrosine-protein kinase CSK (Homo sapiens) (UniProt P41240); assay: Inhibition of CSK (unknown origin) at 1 uM preincubated for 10 mins followed by substrate addition measured for 60 to 120 mins by HTRF assay relative to control; conditions: time 70-130 min
[18] = species: Homo sapiens; assay: Inhibition of FYN a (unknown origin) at 1 uM preincubated for 10 mins followed by substrate addition measured for 60 to 120 mins by HTRF assay relative to control; conditions: time 70-130 min
[19] = molecular target: Tyrosine-protein kinase ABL2 (Homo sapiens) (UniProt P42684); assay: Inhibition of ABL2 (unknown origin) at 1 uM preincubated for 10 mins followed by substrate addition measured for 60 to 120 mins by HTRF assay relative to control; conditions: time 70-130 min
[20] = molecular target: Ephrin type-B receptor 4 (Homo sapiens) (UniProt P54760); assay: Inhibition of EPHB4 (unknown origin) at 1 uM preincubated for 10 mins followed by substrate addition measured for 60 to 120 mins by HTRF assay relative to control; conditions: time 70-130 min
[21] = molecular target: Cyclin-dependent kinase 8 (Homo sapiens, UniProt P49336); assay: Binding affinity to CDK8 in human HCT-116 cells upto 4 uM incubated for 12 hrs by biotin pull down based Western blot analysis; assay type: cell-based
[22] = test system: HL-60; assay: Induction of apoptosis in human HL-60 cells assessed as viable cells at 1 uM incubated for 48 hrs by annexin V-FITC/PI staining based flow cytometry (reference value: 96.5 %); assay type: functional; conditions: read-out: Activity
[23] = test system: HL-60; assay: Induction of apoptosis in human HL-60 cells assessed as early apoptosis cells at 1 uM incubated for 48 hrs by annexin V-FITC/PI staining based flow cytometry (reference value: 2.08 %); assay type: functional
[24] = test system: HL-60; assay: Induction of apoptosis in human HL-60 cells assessed as necrotic cells at 1 uM incubated for 48 hrs by annexin V-FITC/PI staining based flow cytometry (reference value: 0.26 %); assay type: functional
[25] = test system: HL-60; assay: Induction of apoptosis in human HL-60 cells assessed as late apoptotic cells at 5 uM incubated for 48 hrs by annexin V-FITC/PI staining based flow cytometry (reference value: 1.07 %); assay type: functional
[26] = MRT in Sprague-Dawley rat at 10 mg/kg, po; assay type: ADME, organism-based; conditions: in vivo
[27] = AUC (0 to infinity) in Sprague-Dawley rat at 10 mg/kg, po; assay type: ADME, organism-based; design: dose 10 mg/kg, route po; conditions: in vivo
[28] = MRT in Sprague-Dawley rat at 2 mg/kg, iv; assay type: ADME, organism-based; conditions: in vivo
[29] = Cmax in Sprague-Dawley rat at 2 mg/kg, iv; assay type: ADME, organism-based; design: dose 2 mg/kg, route iv; conditions: in vivo
[30] = test system: C1498; assay: Antitumor activity against mouse C1498 cells allografted in AML Balb/C mouse model assessed as reduction in tumor growth at 40 to 80 mg/kg, po administered daily for 15 days measured on every 2 days; assay type: functional, organism-based; conditions: dose 40-80 mg/kg, time 15.0 day
[31] = test system: C1498; assay: Downregulation of STAT1 S727 phosphorylation in mouse C1498 cells allografted in AML Balb/C mouse model at 40 to 80 mg/kg, po administered daily for 15 days measured after 3 weeks by IHC analysis; assay type: functional, organism-based; conditions: dose 40-80 mg/kg, time 15.0 day
[32] = molecular target: Tyrosine-protein kinase SRMS (Homo sapiens) (UniProt Q9H3Y6); assay: Inhibition of SRM (unknown origin) at 1 uM preincubated for 10 mins followed by substrate addition measured for 60 to 120 mins by HTRF assay relative to control; conditions: time 70-130 min
Chain of Tyrosine-protein kinase SRMS (Homo sapiens) (Q9H3Y6 whole entry, looked up): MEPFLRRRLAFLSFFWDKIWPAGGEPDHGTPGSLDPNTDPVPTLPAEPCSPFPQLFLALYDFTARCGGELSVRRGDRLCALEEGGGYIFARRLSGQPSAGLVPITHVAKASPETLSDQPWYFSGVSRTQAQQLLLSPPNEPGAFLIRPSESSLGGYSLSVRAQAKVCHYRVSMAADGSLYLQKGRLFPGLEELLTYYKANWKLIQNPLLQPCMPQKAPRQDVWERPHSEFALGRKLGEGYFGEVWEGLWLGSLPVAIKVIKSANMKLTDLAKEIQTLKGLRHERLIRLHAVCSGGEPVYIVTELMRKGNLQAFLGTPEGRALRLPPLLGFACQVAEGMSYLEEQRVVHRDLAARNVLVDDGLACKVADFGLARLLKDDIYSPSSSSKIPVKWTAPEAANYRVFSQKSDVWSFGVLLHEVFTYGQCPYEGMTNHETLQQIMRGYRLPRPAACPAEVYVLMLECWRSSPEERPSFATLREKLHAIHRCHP

Chain of Ephrin type-A receptor 3 (Homo sapiens) (P29320 whole entry): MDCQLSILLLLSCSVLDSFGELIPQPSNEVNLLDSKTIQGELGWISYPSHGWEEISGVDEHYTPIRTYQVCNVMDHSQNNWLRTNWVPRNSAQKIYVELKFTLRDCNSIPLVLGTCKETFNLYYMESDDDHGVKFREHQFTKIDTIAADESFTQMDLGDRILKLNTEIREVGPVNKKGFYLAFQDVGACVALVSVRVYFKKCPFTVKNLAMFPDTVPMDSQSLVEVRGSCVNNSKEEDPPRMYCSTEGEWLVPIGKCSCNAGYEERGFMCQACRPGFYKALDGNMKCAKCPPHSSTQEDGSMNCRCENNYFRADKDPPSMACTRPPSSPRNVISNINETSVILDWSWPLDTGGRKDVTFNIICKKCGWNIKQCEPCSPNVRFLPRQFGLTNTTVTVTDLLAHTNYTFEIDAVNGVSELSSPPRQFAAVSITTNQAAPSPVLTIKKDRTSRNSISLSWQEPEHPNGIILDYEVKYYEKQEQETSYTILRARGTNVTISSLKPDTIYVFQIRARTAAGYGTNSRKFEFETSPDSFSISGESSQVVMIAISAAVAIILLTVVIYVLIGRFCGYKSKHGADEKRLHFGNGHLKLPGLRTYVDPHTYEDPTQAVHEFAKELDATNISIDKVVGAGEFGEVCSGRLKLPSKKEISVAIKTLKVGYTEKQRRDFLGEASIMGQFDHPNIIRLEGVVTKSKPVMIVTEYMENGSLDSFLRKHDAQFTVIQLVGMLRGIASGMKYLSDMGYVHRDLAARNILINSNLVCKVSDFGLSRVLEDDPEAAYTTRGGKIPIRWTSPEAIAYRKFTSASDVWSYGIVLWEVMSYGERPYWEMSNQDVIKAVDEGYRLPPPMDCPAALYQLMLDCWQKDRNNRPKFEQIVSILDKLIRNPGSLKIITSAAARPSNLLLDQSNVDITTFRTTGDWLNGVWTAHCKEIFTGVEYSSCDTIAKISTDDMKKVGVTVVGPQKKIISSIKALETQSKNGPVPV
Chain of Hepatocyte growth factor receptor (Homo sapiens) (P08581 whole entry): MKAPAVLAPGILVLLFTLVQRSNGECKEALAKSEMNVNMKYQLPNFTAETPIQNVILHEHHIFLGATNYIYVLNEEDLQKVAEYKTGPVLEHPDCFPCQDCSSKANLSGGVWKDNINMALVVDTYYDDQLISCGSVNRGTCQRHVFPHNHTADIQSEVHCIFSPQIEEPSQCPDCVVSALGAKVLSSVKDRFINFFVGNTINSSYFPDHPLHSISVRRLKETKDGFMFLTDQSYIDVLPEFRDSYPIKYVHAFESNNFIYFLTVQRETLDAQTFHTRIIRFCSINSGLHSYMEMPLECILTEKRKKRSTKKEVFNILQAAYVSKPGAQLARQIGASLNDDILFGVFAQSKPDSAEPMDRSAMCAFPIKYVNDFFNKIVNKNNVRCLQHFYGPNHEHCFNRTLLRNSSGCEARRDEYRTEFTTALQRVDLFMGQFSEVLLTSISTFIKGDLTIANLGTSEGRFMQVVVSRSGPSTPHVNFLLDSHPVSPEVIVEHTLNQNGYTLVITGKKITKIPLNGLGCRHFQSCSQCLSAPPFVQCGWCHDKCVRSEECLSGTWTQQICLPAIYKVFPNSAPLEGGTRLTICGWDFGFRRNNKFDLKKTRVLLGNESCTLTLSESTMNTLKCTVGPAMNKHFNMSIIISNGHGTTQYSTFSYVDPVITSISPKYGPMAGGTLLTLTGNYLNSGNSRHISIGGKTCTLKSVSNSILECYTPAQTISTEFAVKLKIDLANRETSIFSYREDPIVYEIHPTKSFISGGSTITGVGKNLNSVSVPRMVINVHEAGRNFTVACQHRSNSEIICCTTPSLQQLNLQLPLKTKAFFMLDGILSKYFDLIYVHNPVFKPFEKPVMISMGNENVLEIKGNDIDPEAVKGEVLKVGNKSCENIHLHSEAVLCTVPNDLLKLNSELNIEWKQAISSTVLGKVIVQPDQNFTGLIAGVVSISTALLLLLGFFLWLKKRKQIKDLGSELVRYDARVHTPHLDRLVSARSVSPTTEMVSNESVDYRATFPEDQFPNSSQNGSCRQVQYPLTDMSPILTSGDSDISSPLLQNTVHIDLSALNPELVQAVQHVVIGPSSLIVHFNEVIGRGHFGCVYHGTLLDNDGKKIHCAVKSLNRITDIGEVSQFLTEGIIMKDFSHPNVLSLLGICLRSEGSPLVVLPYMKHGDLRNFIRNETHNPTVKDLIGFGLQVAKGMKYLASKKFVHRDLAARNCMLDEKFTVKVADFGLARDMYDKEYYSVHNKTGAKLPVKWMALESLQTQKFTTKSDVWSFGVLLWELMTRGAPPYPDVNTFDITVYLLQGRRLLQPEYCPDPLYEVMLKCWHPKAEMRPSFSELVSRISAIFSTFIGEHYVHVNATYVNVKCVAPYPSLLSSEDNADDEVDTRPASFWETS
Chain of Tyrosine-protein kinase TXK (Homo sapiens) (P42681 whole entry): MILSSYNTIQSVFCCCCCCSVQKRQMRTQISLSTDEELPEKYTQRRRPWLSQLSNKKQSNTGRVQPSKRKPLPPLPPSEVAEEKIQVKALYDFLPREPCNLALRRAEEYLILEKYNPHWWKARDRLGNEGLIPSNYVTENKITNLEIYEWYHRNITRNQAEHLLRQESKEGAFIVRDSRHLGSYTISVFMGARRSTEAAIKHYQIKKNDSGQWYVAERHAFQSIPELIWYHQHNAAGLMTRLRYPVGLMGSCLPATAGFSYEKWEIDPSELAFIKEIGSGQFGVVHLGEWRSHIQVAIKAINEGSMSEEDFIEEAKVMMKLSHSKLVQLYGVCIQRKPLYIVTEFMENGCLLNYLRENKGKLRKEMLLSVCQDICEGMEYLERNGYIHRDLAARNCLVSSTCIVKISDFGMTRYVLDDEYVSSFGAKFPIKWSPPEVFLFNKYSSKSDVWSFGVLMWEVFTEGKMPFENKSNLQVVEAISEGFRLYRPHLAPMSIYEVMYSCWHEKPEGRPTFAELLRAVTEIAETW
Chain of Tyrosine-protein kinase ABL2 (Homo sapiens) (P42684 whole entry): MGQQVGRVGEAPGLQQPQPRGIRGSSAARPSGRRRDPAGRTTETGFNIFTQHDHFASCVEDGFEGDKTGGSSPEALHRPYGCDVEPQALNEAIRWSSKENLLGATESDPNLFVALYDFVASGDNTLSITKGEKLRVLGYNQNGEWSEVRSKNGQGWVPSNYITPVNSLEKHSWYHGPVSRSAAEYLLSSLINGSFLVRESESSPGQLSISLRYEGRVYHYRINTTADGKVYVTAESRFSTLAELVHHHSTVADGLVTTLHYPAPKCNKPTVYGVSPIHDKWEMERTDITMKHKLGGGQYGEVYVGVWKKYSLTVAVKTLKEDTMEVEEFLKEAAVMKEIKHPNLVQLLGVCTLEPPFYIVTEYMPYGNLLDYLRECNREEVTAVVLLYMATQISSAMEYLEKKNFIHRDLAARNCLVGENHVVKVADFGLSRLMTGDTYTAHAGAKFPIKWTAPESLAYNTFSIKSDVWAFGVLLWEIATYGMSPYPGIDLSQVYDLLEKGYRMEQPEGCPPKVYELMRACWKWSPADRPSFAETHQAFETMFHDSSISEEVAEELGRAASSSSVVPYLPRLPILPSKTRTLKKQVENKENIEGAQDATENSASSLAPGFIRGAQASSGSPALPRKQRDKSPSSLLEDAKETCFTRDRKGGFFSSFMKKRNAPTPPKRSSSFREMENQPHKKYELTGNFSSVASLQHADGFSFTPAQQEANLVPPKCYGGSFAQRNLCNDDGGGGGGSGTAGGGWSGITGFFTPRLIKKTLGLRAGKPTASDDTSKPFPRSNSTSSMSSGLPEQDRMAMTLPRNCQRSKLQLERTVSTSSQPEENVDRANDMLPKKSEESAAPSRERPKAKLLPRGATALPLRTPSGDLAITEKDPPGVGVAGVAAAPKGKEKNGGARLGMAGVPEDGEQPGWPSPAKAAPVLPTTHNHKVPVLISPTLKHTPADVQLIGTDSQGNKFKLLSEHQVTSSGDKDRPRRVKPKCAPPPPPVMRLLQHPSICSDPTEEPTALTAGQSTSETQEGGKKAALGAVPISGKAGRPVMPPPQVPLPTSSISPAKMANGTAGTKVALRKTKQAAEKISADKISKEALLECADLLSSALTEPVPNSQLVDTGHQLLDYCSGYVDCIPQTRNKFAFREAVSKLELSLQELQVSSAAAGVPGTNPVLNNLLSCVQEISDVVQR
Chain of Cyclin-dependent kinase 5/CDK5 activator 1 (Homo sapiens) (Q00535 whole entry): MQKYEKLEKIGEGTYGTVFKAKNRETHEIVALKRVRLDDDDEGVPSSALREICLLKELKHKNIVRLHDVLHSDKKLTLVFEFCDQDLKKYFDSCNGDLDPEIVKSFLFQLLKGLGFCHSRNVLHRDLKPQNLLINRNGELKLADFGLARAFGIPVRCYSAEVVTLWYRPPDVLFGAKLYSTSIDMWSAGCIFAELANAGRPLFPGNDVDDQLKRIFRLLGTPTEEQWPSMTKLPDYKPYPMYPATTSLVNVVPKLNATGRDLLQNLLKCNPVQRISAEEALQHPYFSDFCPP
Chain of Cyclin-dependent kinase 5/CDK5 activator 1 (Homo sapiens) (Q15078 99-307 partner limits assumed): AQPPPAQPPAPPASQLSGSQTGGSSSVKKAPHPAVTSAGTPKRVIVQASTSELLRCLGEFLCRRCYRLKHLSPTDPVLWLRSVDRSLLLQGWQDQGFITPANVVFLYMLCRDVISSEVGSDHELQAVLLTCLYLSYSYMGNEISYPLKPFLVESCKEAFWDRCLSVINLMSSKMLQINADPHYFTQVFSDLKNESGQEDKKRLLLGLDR

NC(=O)c1cccc(-c2cnc3[nH]ccc3c2)c1
GI50 [1]: 1 µM | GI50 [2]: > 50 µM | GI50 [3]: > 50 µM | GI50 [4]: > 50 µM | inhibition [5]: 15.8% | inhibition [6]: 26.7% | inhibition [7]: 16.2% | inhibition [8]: 1.59% | inhibition [9]: 0% | inhibition [10]: 0% | inhibition [11]: 0% | inhibition [12]: 0% | inhibition [13]: 0% | inhibition [14]: 0% | inhibition [15]: 0% | inhibition [16]: 0% | inhibition [17]: 0% | inhibition [18]: 0% | inhibition [19]: 0% | inhibition [20]: 0% | Activity [21]: Active | viability at 1 µM [22]: 93.3% | Activity [23]: 79.4% | Activity [24]: 5.04% | Activity [25]: 1.45% | MRT [26]: 2.47 h | AUC(0-inf) [27]: 434 ng·h/mL | MRT [28]: 1.5 h | Cmax [29]: 231 ng/mL | Activity [30]: Active | Activity [31]: Active | inhibition [32]: 0%
